Source: ChEMBL document CHEMBL3779840, “Discovery of 2-((3-Amino-4-methylphenyl)amino)-N-(2-methyl-5-(3-(trifluoromethyl)benzamido)phenyl)-4-(methylamino)pyrimidine-5-carboxamide (CHMFL-ABL-053) as a Potent, Selective, and Orally Available BCR-ABL/SRC/p38 Kinase Inhibitor for Chronic Myeloid Leukemia” (J Med Chem, 2016)

Tests used:
[1] = Antiproliferative activity against mouse BA/F3 cells assessed as cell viability after 72 hrs by CellTiter-Glo or CCK-8 assay; type: cell-based, BaF3
[2] = molecular target: Bcr/Abl fusion protein (Homo sapiens) (UniProt P00519+P11274); settings: BaF3
Description: Inhibition of BCR/ABL p210 (unknown origin) expressed in mouse BA/F3 cells assessed as growth inhibition after 72 hrs by CellTiter-Glo or CCK-8 assay

K562 = test: Antiproliferative activity against human K562 cells assessed as cell viability after 72 hrs by CellTiter-Glo or CCK-8 assay; type: functional; settings: K562, 72 h
[3] = molecular target: Transcription factor ETV6/Tyrosine-protein kinase ABL1 (Homo sapiens) (UniProt P00519+P41212); settings: BaF3
Sequence of Transcription factor ETV6/Tyrosine-protein kinase ABL1 (Homo sapiens) (P00519 whole entry, looked up): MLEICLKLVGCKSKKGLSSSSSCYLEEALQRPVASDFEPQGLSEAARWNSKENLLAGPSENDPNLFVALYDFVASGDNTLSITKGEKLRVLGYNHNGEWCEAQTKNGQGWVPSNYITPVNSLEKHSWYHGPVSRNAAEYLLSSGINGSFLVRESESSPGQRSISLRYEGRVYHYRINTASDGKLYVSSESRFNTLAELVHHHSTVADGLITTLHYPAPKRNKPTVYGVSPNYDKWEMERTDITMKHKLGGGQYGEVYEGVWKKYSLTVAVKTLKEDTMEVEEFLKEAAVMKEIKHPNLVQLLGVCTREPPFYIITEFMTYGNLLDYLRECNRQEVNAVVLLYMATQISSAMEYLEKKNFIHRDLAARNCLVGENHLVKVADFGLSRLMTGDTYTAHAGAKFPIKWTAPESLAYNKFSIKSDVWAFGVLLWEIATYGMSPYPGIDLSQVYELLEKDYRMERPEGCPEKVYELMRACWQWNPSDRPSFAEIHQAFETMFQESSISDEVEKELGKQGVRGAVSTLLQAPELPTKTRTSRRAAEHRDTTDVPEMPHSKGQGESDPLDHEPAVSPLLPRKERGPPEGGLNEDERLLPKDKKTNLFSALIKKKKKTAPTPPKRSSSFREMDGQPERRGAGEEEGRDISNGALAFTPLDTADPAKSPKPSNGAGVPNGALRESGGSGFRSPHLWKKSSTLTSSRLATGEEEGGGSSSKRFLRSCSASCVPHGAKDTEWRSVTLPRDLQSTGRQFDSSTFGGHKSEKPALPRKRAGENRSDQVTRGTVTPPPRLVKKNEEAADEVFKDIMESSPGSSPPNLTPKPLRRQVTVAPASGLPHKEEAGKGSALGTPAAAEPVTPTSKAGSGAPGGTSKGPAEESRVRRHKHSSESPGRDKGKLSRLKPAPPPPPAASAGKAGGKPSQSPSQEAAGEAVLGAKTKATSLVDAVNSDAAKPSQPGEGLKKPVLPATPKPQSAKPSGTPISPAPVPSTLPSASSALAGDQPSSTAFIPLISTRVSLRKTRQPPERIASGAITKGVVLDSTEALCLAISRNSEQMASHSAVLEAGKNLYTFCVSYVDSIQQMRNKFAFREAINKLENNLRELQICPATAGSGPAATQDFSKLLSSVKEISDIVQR
Sequence of Transcription factor ETV6/Tyrosine-protein kinase ABL1 (Homo sapiens) (P41212 whole entry, looked up): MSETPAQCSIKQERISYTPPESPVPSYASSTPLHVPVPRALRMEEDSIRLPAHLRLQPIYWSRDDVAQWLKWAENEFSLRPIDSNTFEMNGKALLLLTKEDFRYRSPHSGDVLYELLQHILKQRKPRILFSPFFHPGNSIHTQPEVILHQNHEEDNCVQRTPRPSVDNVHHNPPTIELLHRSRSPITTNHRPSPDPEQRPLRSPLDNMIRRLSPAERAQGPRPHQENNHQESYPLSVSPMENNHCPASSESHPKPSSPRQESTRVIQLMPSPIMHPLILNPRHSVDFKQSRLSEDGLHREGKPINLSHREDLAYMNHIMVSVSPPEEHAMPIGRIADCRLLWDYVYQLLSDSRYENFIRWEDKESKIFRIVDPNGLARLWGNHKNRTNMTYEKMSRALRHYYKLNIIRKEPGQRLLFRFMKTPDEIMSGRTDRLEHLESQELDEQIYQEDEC
Description: Inhibition of Tel-ABL (unknown origin) expressed in mouse BA/F3 cells assessed as cell growth inhibition after 72 hrs by CellTiter-Glo or CCK-8 assay

Sequence of Bcr/Abl fusion protein (Homo sapiens) (P00519 whole entry, looked up, the tested form may be a part): as the sequence (P00519 whole entry, looked up) above
Sequence of Bcr/Abl fusion protein (Homo sapiens) (P11274 whole entry, looked up, the tested form may be a part): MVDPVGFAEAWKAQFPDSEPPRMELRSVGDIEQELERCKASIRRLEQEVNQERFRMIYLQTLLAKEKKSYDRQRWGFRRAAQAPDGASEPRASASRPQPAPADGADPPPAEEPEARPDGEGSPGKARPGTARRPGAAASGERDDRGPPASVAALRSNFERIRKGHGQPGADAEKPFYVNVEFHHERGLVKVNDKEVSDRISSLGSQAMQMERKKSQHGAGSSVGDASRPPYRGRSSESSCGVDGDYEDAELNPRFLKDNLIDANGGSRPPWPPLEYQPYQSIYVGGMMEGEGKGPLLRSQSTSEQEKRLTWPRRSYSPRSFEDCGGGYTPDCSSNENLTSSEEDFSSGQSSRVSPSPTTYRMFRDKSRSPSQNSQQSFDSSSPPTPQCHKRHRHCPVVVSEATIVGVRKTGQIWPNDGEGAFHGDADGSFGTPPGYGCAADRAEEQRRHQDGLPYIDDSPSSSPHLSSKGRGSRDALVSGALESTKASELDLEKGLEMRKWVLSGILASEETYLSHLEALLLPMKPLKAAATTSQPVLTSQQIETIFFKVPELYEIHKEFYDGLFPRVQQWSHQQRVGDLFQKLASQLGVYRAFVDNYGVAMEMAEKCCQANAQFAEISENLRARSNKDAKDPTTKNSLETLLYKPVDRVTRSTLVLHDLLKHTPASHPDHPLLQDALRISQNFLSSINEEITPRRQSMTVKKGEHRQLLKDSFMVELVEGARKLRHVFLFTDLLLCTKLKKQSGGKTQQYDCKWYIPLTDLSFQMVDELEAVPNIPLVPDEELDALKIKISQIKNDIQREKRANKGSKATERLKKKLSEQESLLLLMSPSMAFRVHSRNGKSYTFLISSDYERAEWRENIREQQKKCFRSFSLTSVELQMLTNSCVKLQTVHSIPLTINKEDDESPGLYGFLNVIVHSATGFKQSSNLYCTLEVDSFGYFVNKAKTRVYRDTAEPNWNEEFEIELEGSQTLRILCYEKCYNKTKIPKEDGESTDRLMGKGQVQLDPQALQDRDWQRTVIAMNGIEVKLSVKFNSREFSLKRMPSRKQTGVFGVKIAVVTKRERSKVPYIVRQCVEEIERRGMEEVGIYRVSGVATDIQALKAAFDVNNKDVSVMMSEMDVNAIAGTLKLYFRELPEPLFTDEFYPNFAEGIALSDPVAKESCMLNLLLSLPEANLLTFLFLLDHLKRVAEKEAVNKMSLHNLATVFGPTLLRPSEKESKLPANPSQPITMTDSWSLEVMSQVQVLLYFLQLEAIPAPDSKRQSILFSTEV

Structure (SMILES)	GI50 at 72 h [1]	GI50 [2]	GI50 (K562)	GI50 [3]
CNc1nc(Nc2ccc(C)c(N)c2)ncc1C(=O)Nc1cc(NC(=O)c2ccc(OC)c(OC)c2)ccc1C	> 10000 nM	1600 nM	380 nM	1100 nM
CNc1nc(Nc2ccc(C)c([N+](=O)[O-])c2)ncc1C(=O)Nc1cc(NC(=O)c2cccc(OC)c2)ccc1C	6310 nM	1100 nM	480 nM	983 nM
CNc1nc(Nc2ccc(C)c([N+](=O)[O-])c2)ncc1C(=O)Nc1cc(NC(=O)c2cc(OC)c(OC)c(OC)c2)ccc1C	> 10000 nM	1500 nM	430 nM	931 nM
CNc1nc(Nc2ccc(C)c(N)c2)ncc1C(=O)Nc1cc(NC(=O)c2ccc(OC)cc2)ccc1C	> 10000 nM	2100 nM	610 nM	1300 nM
CNc1nc(Nc2ccc(C)c([N+](=O)[O-])c2)ncc1C(=O)Nc1cc(NC(=O)c2ccccc2OC)ccc1C	> 10000 nM	> 10000 nM	> 10000 nM	> 10000 nM
Cc1cccc(C(=O)Nc2ccc(C)c(N3Cc4cnc(Nc5ccc(C)c(N)c5)nc4N(C)C3=O)c2)c1	> 10000 nM	14 nM	68.8 nM	6 nM
CNc1nc(Nc2ccc(C)c([N+](=O)[O-])c2)ncc1C(=O)Nc1cc(NC(=O)c2cc(OC)cc(OC)c2)ccc1C	> 10000 nM	294 nM	1070 nM	2030 nM
CNc1cc(Nc2ncc3c(n2)N(C)C(=O)N(c2cc(NC(=O)c4cccc(C(F)(F)F)c4)ccc2C)C3)ccc1C	> 10000 nM	14 nM	19 nM	20 nM
Cc1ccc(Nc2ncc3c(n2)N(C)C(=O)N(c2cc(NC(=O)c4cccc(C(F)(F)F)c4)ccc2C)C3)cc1	8000 nM	19 nM	18 nM	50 nM
CNc1nc(Nc2ccc(C)c(N)c2)ncc1C(=O)Nc1cc(NC(=O)c2cc(OC)cc(OC)c2)ccc1C	> 10000 nM	311 nM	230 nM	628 nM
Cc1ccc(NC(=O)c2cccc(C(F)(F)F)c2)cc1N1Cc2cnc(Nc3ccc(C)c(C(F)(F)F)c3)nc2N(C)C1=O	> 10000 nM	67 nM	29 nM	185 nM
Cc1cc(C)cc(C(=O)Nc2ccc(C)c(N3Cc4cnc(Nc5ccc(C)c(N)c5)nc4N(C)C3=O)c2)c1	> 10000 nM	42 nM	26 nM	31 nM
CNc1nc(Nc2ccc(C)c(N)c2)ncc1C(=O)Nc1cc(NC(=O)c2ccc3c(c2)OCCO3)ccc1C	> 10000 nM	1100 nM	320 nM	787 nM
CNc1nc(Nc2ccc(C)c([N+](=O)[O-])c2)ncc1C(=O)Nc1cc(NC(=O)c2ccc(OC)c(OC)c2)ccc1C	7300 nM	1600 nM	680 nM	1400 nM
Cc1ccc(Nc2ncc3c(n2)N(C)C(=O)N(c2cc(NC(=O)c4cccc(C(F)(F)F)c4)ccc2C)C3)cc1C	3760 nM	66 nM	17 nM	61 nM
CNc1nc(Nc2ccc(C)c([N+](=O)[O-])c2)ncc1C(=O)Nc1cc(NC(=O)c2ccc3c(c2)OCO3)ccc1C	> 10000 nM	214 nM	499 nM	1290 nM
Cc1ccc(Nc2ncc3c(n2)N(C)C(=O)N(c2cc(NC(=O)c4cccc(C(F)(F)F)c4)ccc2C)C3)cn1	120 nM		9 nM	
CNc1nc(Nc2ccc(C)c(N)c2)ncc1C(=O)Nc1cc(NC(=O)c2cc(OC)c(OC)c(OC)c2)ccc1C	> 10000 nM	670 nM	250 nM	445 nM
Cc1ccc(Nc2ncc3c(n2)N(C)C(=O)N(c2cc(NC(=O)c4cc(C(C)(C)C)cc(C(C)(C)C)c4)ccc2C)C3)cc1N	> 10000 nM	120 nM	1300 nM	96 nM

Structure (SMILES)	GI50 at 72 h [1]	GI50 [2]	GI50 (K562)	GI50 [3]
Cc1ccc(Nc2ncc3c(n2)N(C)C(=O)N(c2cc(NC(=O)c4cccc(-c5ccccc5)c4)ccc2C)C3)cc1N	> 10000 nM	46 nM	23 nM	39 nM
Cc1ccc(Nc2ncc3c(n2)N(C)C(=O)N(c2cc(NC(=O)c4cccc(C(F)(F)F)c4)ccc2C)C3)cc1N	440 nM	5 nM	3 nM	5 nM
Cc1ccc(Nc2ncc3c(n2)N(C)C(=O)N(c2cc(NC(=O)c4cccc(C(F)(F)F)c4)ccc2C)C3)cc1N(C)C	> 10000 nM	30 nM	28 nM	42 nM
Cc1ccc(Nc2ncc(C(=O)Nc3cc(NC(=O)c4cccc(C(F)(F)F)c4)ccc3C)cn2)cc1N	> 10000 nM	470 nM	330 nM	590 nM
Cc1ccc(NC(=O)c2cccc(C(F)(F)F)c2)cc1N1Cc2cnc(O[C@H]3CCN(C(=O)OC(C)(C)C)C3)nc2N(C)C1=O	8380 nM	126 nM	30 nM	292 nM
Cc1ccc(NC(=O)c2cccc(C(F)(F)F)c2)cc1N1Cc2cnc(O[C@H]3CCNC3)nc2N(C)C1=O	> 10000 nM	1260 nM	450 nM	1380 nM
CNc1nc(Nc2ccc(C)c(N)c2)ncc1C(=O)Nc1cc(NC(=O)c2ccccc2OC)ccc1C	> 10000 nM	6400 nM	1980 nM	5200 nM
Cc1ccc(NC(=O)c2cccc(C(F)(F)F)c2)cc1N1Cc2cnc(NC3CCN(C(=O)OC(C)(C)C)CC3)nc2N(C)C1=O	7520 nM	55 nM	18 nM	105 nM
Cc1ccc(NC(=O)c2cccc(C(F)(F)F)c2)cc1NC(=O)c1cnc(Nc2ccc(C)c([N+](=O)[O-])c2)nc1N(C)C	> 10000 nM	> 10000 nM	> 10000 nM	> 10000 nM
CNc1nc(Nc2ccc(C)c([N+](=O)[O-])c2)ncc1C(=O)Nc1cc(NC(=O)c2cccc(C(F)(F)F)c2)ccc1C	> 10000 nM	36 nM	52 nM	87 nM
Cc1ccc(Nc2ncc(C(=O)Nc3cc(NC(=O)c4cccc(C(F)(F)F)c4)ccc3C)c(N(C)C)n2)cc1N	> 10000 nM	1850 nM	1210 nM	1030 nM
CNc1nc(Nc2ccc(C)c(N)c2)ncc1C(=O)Nc1cc(NC(=O)c2ccc3c(c2)OCO3)ccc1C	> 10000 nM	124 nM	353 nM	570 nM
CNc1nc(Nc2ccc(C)c([N+](=O)[O-])c2)ncc1C(=O)Nc1cc(NC(=O)c2ccc(OC)cc2)ccc1C	> 10000 nM	3600 nM	1530 nM	2900 nM
CNc1nc(Nc2ccc(C)c([N+](=O)[O-])c2)ncc1C(=O)Nc1cc(NC(=O)c2ccc3c(c2)OCCO3)ccc1C	> 10000 nM	4100 nM	320 nM	4240 nM
Cc1ccc(NC(=O)c2cccc(C(F)(F)F)c2)cc1NC(=O)c1cnc(Nc2ccc(C)c([N+](=O)[O-])c2)nc1	8700 nM	1200 nM	380 nM	1400 nM
Cc1ccc(NC(=O)c2cccc(C(F)(F)F)c2)cc1N1Cc2cnc(OC3CCN(C(=O)OC(C)(C)C)CC3)nc2N(C)C1=O	> 10000 nM	132 nM	29 nM	288 nM
Cc1ccc(Oc2ncc3c(n2)N(C)C(=O)N(c2cc(NC(=O)c4cccc(C(F)(F)F)c4)ccc2C)C3)cc1N	> 10000 nM	32 nM	13 nM	15 nM
Cc1ccc(NC(=O)c2cccc(C(F)(F)F)c2)cc1N1Cc2cnc(NCCCN3CCOCC3)nc2N(C)C1=O	5600 nM	15 nM	7 nM	9 nM
Cc1ccc(NC(=O)c2cccc(C(F)(F)F)c2)cc1N1Cc2cnc(NC3CCNCC3)nc2N(C)C1=O	3000 nM	150 nM	19 nM	100 nM
